Laboratory results: ChEMBL document CHEMBL3217717, “Synthesis and antiproliferative activity of novel erythromycin derivatives” (Medchemcomm, 2010)

Assays:
Type in all cases: functional, cell-based
[1] = Cytotoxicity against human HT1080 cells assessed as growth inhibition after 48 hrs by MTT assay; conditions: HT-1080, 48 h
KB = test: Cytotoxicity against human KB cells assessed as growth inhibition after 48 hrs by MTT assay
[2] = Cytotoxicity against human SGC7901 cells assessed as growth inhibition after 48 hrs by MTT assay; conditions: SGC-7901, 48 h

| Compound | IC50 [1] [µM] | IC50 (KB) [µM] | IC50 [2] [µM] |
| --- | --- | --- | --- |
| CC[C@H]1OC(=O)[C@H](C)[C@@H](O[C@H]2C[C@@](C)(OC)[C@@H](O)[C@H](C)O2)[C@H](C)[C@@H](O[C@@H]2O[C@H](C)C[C@H](N(C)CCN(C)[C@H]3C[C@@H](C)O[C@@H](O[C@@H]4[C@@H](C)[C@H](O[C@H]5C[C@@](C)(OC)[C@@H](O)[C@H](C)O5)[C@@H](C)C(=O)O[C@H](CC)[C@@](C)(O)[C@H](O)[C@@H](C)/C(=N\OCc5ccccc5)[C@H](C)C[C@@]4(C)O)[C@@H]3O)[C@H]2O)[C@](C)(O)C[C@@H](C)/C(=N/OCOCCOC)[C@H](C)[C@@H](O)[C@]1(C)O | > 100 | > 100 | > 100 |
| CC[C@H]1OC(=O)[C@H](C)[C@@H](O[C@H]2C[C@@](C)(OC)[C@@H](O)[C@H](C)O2)[C@H](C)[C@@H](O[C@@H]2O[C@H](C)C[C@H](N(C)C(=O)CN(C)[C@H]3C[C@@H](C)O[C@@H](O[C@@H]4[C@@H](C)[C@H](O[C@H]5C[C@@](C)(OC)[C@@H](O)[C@H](C)O5)[C@@H](C)C(=O)O[C@H](CC)[C@@](C)(O)[C@H](O)[C@@H](C)/C(=N\OCOCCOC)[C@H](C)C[C@@]4(C)O)[C@@H]3O)[C@H]2O)[C@](C)(OC)C[C@@H](C)C(=O)[C@H](C)[C@@H](O)[C@]1(C)O | > 100 | > 100 | > 100 |
| CC[C@H]1OC(=O)[C@H](C)[C@@H](O[C@H]2C[C@@](C)(OC)[C@@H](O)[C@H](C)O2)[C@H](C)[C@@H](O[C@@H]2O[C@H](C)C[C@H](N(C)C(=O)CN(C)[C@H]3C[C@@H](C)O[C@@H](O[C@@H]4[C@@H](C)[C@H](O[C@H]5C[C@@](C)(OC)[C@@H](O)[C@H](C)O5)[C@@H](C)C(=O)O[C@H](CC)[C@@](C)(O)[C@H](O)[C@@H](C)C(=O)[C@H](C)C[C@@]4(C)O)[C@@H]3O)[C@H]2O)[C@](C)(OC)C[C@@H](C)C(=O)[C@H](C)[C@@H](O)[C@]1(C)O | > 100 | 27.6 | 65.9 |
| CC[C@H]1OC(=O)[C@H](C)[C@@H](O[C@H]2C[C@@](C)(OC)[C@@H](O)[C@H](C)O2)[C@H](C)[C@@H](O[C@@H]2O[C@H](C)C[C@H](N(C)CC(=O)N(C)[C@H]3C[C@@H](C)O[C@@H](O[C@@H]4[C@@H](C)[C@H](O)[C@@H](C)C(=O)O[C@H](CC)[C@@](C)(O)[C@H](O)[C@@H](C)/C(=N\OCOCCOC)[C@H](C)C[C@@]4(C)O)[C@@H]3O)[C@H]2O)[C@](C)(OC)C[C@@H](C)C(=O)[C@H](C)[C@@H](O)[C@]1(C)O | > 100 | > 100 | > 100 |
| CC[C@H]1OC(=O)[C@H](C)[C@@H](O)[C@H](C)[C@@H](O[C@@H]2O[C@H](C)C[C@H](N(C)CCN(C)[C@H]3C[C@@H](C)O[C@@H](O[C@@H]4[C@@H](C)[C@H](O)[C@@H](C)C(=O)O[C@H](CC)[C@@](C)(O)[C@H](O)[C@@H](C)[C@@H](O)[C@H](C)C[C@@]4(C)O)[C@@H]3O)[C@H]2O)[C@](C)(O)C[C@@H](C)[C@H](O)[C@H](C)[C@@H](O)[C@]1(C)O | > 100 | > 100 | > 100 |
| CC[C@H]1OC(=O)[C@H](C)[C@@H](O[C@H]2C[C@@](C)(OC)[C@@H](O)[C@H](C)O2)[C@H](C)[C@@H](O[C@@H]2O[C@H](C)C[C@H](N(C)CCN(C)[C@H]3C[C@@H](C)O[C@@H](O[C@@H]4[C@@H](C)[C@H](O[C@H]5C[C@@](C)(OC)[C@@H](O)[C@H](C)O5)[C@@H](C)C(=O)O[C@H](CC)[C@@](C)(O)[C@H](O)[C@@H](C)C(=O)[C@H](C)C[C@@]4(C)OC)[C@@H]3O)[C@H]2O)[C@](C)(O)C[C@@H](C)[C@H](N)[C@H](C)[C@@H](O)[C@]1(C)O | 17.8 | 26.4 | 57.8 |
| C=CCO/N=C1/[C@H](C)C[C@@](C)(O)[C@H](O[C@@H]2O[C@H](C)C[C@H](N(C)CCN(C)[C@H]3C[C@@H](C)O[C@@H](O[C@@H]4[C@@H](C)[C@H](O[C@H]5C[C@@](C)(OC)[C@@H](O)[C@H](C)O5)[C@@H](C)C(=O)O[C@H](CC)[C@@](C)(O)[C@H](O)[C@@H](C)/C(=N\OCC=C)[C@H](C)C[C@@]4(C)O)[C@@H]3O)[C@H]2O)[C@@H](C)[C@H](O[C@H]2C[C@@](C)(OC)[C@@H](O)[C@H](C)O2)[C@@H](C)C(=O)O[C@H](CC)[C@@](C)(O)[C@H](O)[C@H]1C | 27.7 | 17.5 | > 100 |
| CC[C@H]1OC(=O)[C@H](C)[C@@H](O[C@H]2C[C@@](C)(OC)[C@@H](O)[C@H](C)O2)[C@H](C)[C@@H](O[C@@H]2O[C@H](C)C[C@H](N(C)CCN(C)[C@H]3C[C@@H](C)O[C@@H](O[C@@H]4[C@@H](C)[C@H](O[C@H]5C[C@@](C)(OC)[C@@H](O)[C@H](C)O5)[C@@H](C)C(=O)O[C@H](CC)[C@@](C)(O)[C@H](O)[C@@H](C)C(=O)[C@H](C)C[C@@]4(C)O)[C@@H]3O)[C@H]2O)[C@](C)(O)C[C@@H](C)C(=O)[C@H](C)[C@@H](O)[C@]1(C)O | > 100 | 37.3 | 18.3 |
| CC[C@H]1OC(=O)[C@H](C)[C@@H](O)[C@H](C)[C@@H](O[C@@H]2O[C@H](C)C[C@H](N(C)CCN(C)[C@H]3C[C@@H](C)O[C@@H](O[C@@H]4[C@@H](C)[C@H](O[C@H]5C[C@@](C)(OC)[C@@H](O)[C@H](C)O5)[C@@H](C)C(=O)O[C@H](CC)[C@@](C)(O)[C@H](O)[C@@H](C)/C(=N\O)[C@H](C)C[C@@]4(C)OC)[C@@H]3O)[C@H]2O)[C@](C)(OC)C[C@@H](C)/C(=N/O)[C@H](C)[C@@H](O)[C@]1(C)O | 42.8 | 38.2 | 12.7 |
| CC[C@H]1OC(=O)[C@H](C)[C@@H](O[C@H]2C[C@@](C)(OC)[C@@H](O)[C@H](C)O2)[C@H](C)[C@@H](O[C@@H]2O[C@H](C)C[C@H](N(C)CCN(C)[C@H]3C[C@@H](C)O[C@@H](O[C@@H]4[C@@H](C)[C@H](O[C@H]5C[C@@](C)(OC)[C@@H](O)[C@H](C)O5)[C@@H](C)C(=O)O[C@H](CC)[C@@](C)(O)[C@H](O)[C@@H](C)/C(=N\OCc5ccccc5)[C@H](C)C[C@@]4(C)OC)[C@@H]3O)[C@H]2O)[C@](C)(OC)C[C@@H](C)/C(=N/OCc2ccccc2)[C@H](C)[C@@H](O)[C@]1(C)O | 9.5 | 7.6 | 26.5 |
| CC[C@H]1OC(=O)[C@H](C)[C@@H](O[C@H]2C[C@@](C)(OC)[C@@H](O)[C@H](C)O2)[C@H](C)[C@@H](O[C@@H]2O[C@H](C)C[C@H](N(C)CC(=O)N(C)[C@H]3C[C@@H](C)O[C@@H](O[C@@H]4[C@@H](C)[C@H](O[C@H]5C[C@@](C)(OC)[C@@H](O)[C@H](C)O5)[C@@H](C)C(=O)O[C@H](CC)[C@@](C)(O)[C@H](O)[C@@H](C)C(=O)[C@H](C)C[C@@]4(C)O)[C@@H]3O)[C@H]2O)[C@](C)(OC)C[C@@H](C)C(=O)[C@H](C)[C@@H](O)[C@]1(C)O | > 100 | > 100 | > 100 |
| CCCCCO/N=C1/[C@H](C)C[C@@](C)(OC)[C@H](O[C@@H]2O[C@H](C)C[C@H](N(C)CCN(C)[C@H]3C[C@@H](C)O[C@@H](O[C@@H]4[C@@H](C)[C@H](O[C@H]5C[C@@](C)(OC)[C@@H](O)[C@H](C)O5)[C@@H](C)C(=O)O[C@H](CC)[C@@](C)(O)[C@H](O)[C@@H](C)/C(=N\OCCCCC)[C@H](C)C[C@@]4(C)OC)[C@@H]3O)[C@H]2O)[C@@H](C)[C@H](O[C@H]2C[C@@](C)(OC)[C@@H](O)[C@H](C)O2)[C@@H](C)C(=O)O[C@H](CC)[C@@](C)(O)[C@H](O)[C@H]1C | 54.1 | > 100 | 30.8 |
| CC[C@H]1OC(=O)[C@H](C)[C@@H](O[C@H]2C[C@@](C)(OC)[C@@H](O)[C@H](C)O2)[C@H](C)[C@@H](O[C@@H]2O[C@H](C)C[C@H](N(C)CCN(C)[C@H]3C[C@@H](C)O[C@@H](O[C@@H]4[C@@H](C)[C@H](O[C@H]5C[C@@](C)(OC)[C@@H](O)[C@H](C)O5)[C@@H](C)C(=O)O[C@H](CC)[C@@](C)(O)[C@H](O)[C@@H](C)/C(=N\OCc5cc(OC)c(OC)c(OC)c5)[C@H](C)C[C@@]4(C)OC)[C@@H]3O)[C@H]2O)[C@](C)(OC)C[C@@H](C)/C(=N/OCc2cc(OC)c(OC)c(OC)c2)[C@H](C)[C@@H](O)[C@]1(C)O | 10.3 | 20.1 | 20 |
| CC[C@H]1OC(=O)[C@H](C)[C@@H](O)[C@H](C)[C@@H](O[C@@H]2O[C@H](C)C[C@H](N(C)CCN(C)[C@H]3C[C@@H](C)O[C@@H](O[C@@H]4[C@@H](C)[C@H](O[C@H]5C[C@@](C)(OC)[C@@H](O)[C@H](C)O5)[C@@H](C)C(=O)O[C@H](CC)[C@@](C)(O)[C@H](O)[C@@H](C)C(=O)[C@H](C)C[C@@]4(C)OC)[C@@H]3O)[C@H]2O)[C@](C)(OC)C[C@@H](C)C(=O)[C@H](C)[C@@H](O)[C@]1(C)O | > 100 | 97 | > 100 |
| CC[C@H]1OC(=O)[C@H](C)[C@@H](O[C@H]2C[C@@](C)(OC)[C@@H](O)[C@H](C)O2)[C@H](C)[C@@H](O[C@@H]2O[C@H](C)C[C@H](N(C)CCN(C)[C@H]3C[C@@H](C)O[C@@H](O[C@@H]4[C@@H](C)[C@H](O[C@H]5C[C@@](C)(OC)[C@@H](O)[C@H](C)O5)[C@@H](C)C(=O)O[C@H](CC)[C@@](C)(O)[C@H](O)[C@@H](C)[C@@H](O)[C@H](C)C[C@@]4(C)O)[C@@H]3O)[C@H]2O)[C@](C)(O)C[C@@H](C)[C@H](O)[C@H](C)[C@@H](O)[C@]1(C)O | > 100 | 44.9 | 61.6 |
| CC[C@H]1OC(=O)[C@H](C)[C@@H](O[C@H]2C[C@@](C)(OC)[C@@H](O)[C@H](C)O2)[C@H](C)[C@@H](O[C@@H]2O[C@H](C)C[C@H](N(C)CCN(C)[C@H]3C[C@@H](C)O[C@@H](O[C@@H]4[C@@H](C)[C@H](O[C@H]5C[C@@](C)(OC)[C@@H](O)[C@H](C)O5)[C@@H](C)C(=O)O[C@H](CC)[C@@](C)(O)[C@H](O)[C@@H](C)/C(=N\OCc5ccccc5)[C@H](C)C[C@@]4(C)O)[C@@H]3O)[C@H]2O)[C@](C)(O)C[C@@H](C)/C(=N/OCc2ccccc2)[C@H](C)[C@@H](O)[C@]1(C)O | > 100 | > 100 | > 100 |
